{
  "source": "patent US20250320184A1",
  "about": "(SIRONAX LTD., priority 2022, published 2025)",
  "biological_target": "T1, SARM1 (50-724) (Homo sapiens, UniProt Q6SZW1)",
  "T1 sequence (Q6SZW1 50-724)": "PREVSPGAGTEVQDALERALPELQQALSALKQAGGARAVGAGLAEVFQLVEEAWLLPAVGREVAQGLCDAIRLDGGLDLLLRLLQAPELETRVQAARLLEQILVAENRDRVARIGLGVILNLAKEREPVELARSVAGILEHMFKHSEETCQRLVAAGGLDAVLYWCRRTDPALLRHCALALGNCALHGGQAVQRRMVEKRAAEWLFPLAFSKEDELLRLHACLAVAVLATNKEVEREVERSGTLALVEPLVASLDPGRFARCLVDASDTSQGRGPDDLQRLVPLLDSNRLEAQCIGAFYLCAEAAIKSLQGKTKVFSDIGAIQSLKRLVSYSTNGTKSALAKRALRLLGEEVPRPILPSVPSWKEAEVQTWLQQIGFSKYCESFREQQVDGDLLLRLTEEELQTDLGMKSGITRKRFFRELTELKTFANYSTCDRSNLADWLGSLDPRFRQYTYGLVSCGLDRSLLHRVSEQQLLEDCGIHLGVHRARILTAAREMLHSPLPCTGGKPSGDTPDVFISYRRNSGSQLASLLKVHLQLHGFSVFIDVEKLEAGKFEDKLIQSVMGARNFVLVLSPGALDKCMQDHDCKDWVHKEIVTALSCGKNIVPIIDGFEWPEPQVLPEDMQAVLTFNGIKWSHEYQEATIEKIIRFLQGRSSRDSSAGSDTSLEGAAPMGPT",
  "assay": "biochemical",
  "procedure": "An enzymatic assay was performed in a 384-well plate using Dulbecco's phosphate-buffered saline (PBS) as the reaction buffer. […] The reaction was initiated by adding a mixture of 200 μM nicotinamide mononucleotide (NMN) as activator and 100 μM NAD^+ as substrate. After 1 h of incubation at room temperature, the reaction was terminated with 10 times volume of 70% acetonitrile, then centrifuged at 3800 rpm for 10 min.",
  "data": [
    {"smiles": "COc1nccc2ccc(NC(C)c3c(Cl)nn(C)c3Cl)cc12", "note": "(racemic) [Compound 248, N-(1-(3,5-dichloro-1-methyl-1H-pyrazol-4-yl)ethyl)-1-methoxyisoquinolin-7-amine]", "values": [
      {"measurement": "IC50", "result": "100 to 500", "unit": "nM"}
    ]},
    {"smiles": "CC(Nc1ccc2cn[nH]c2c1)c1nc(Cl)c(Cl)s1", "note": "(racemic) [Compound 249, N-(1-(4,5-dichlorothiazol-2-yl)ethyl)-1H-indazol-6-amine]", "values": [
      {"measurement": "IC50", "result": "< 100", "unit": "nM"}
    ]},
    {"smiles": "O=c1[nH]ccc2ccc(NC(CCO)c3cccc(Cl)c3Cl)cc12", "note": "(racemic) [Compound 252, 7-((1-(2,3-dichlorophenyl)-3-hydroxypropyl)amino)isoquinolin-1(2H)-one]", "values": [
      {"measurement": "IC50", "result": "< 100", "unit": "nM"}
    ]},
    {"smiles": "CC(C)(O)C(Nc1ccc2cc[nH]c(=O)c2c1)c1cccc(Cl)c1Cl", "note": "(racemic) [Compound 253, 7-((1-(2,3-dichlorophenyl)-2-hydroxy-2-methylpropyl)amino)isoquinolin-1(2H)-one]", "values": [
      {"measurement": "IC50", "result": "< 100", "unit": "nM"}
    ]},
    {"smiles": "CC(Nc1ccc2cc[nH]c(=O)c2c1)c1nn(C)c(Cl)c1Cl", "note": "(racemic) [Compound 256, 7-((1-(4,5-dichloro-1-methyl-1H-pyrazol-3-yl)ethyl)amino)isoquinolin-1(2H)-one]", "values": [
      {"measurement": "IC50", "result": "< 100", "unit": "nM"}
    ]},
    {"smiles": "Cc1c(Cl)c(C(C)Nc2ccc3cc[nH]c(=O)c3c2)nn1CC(F)(F)F", "note": "(racemic) [Compound 257, 7-((1-(4-chloro-5-methyl-1-(2,2,2-trifluoroethyl)-1H-pyrazol-3-yl)ethyl)amino)isoquinolin-1(2H)-one]", "values": [
      {"measurement": "IC50", "result": "< 100", "unit": "nM"}
    ]},
    {"smiles": "CC(Nc1ccc2c(c1)NC(=O)OC2(C)C)c1nc(Cl)c(Cl)s1", "note": "(racemic) [Compound 258, 7-((1-(4,5-dichlorothiazol-2-yl)ethyl)amino)-4,4-dimethyl-1,4-dihydro-2H-benzo[d][1,3]oxazin-2-one]", "values": [
      {"measurement": "IC50", "result": "< 100", "unit": "nM"}
    ]},
    {"smiles": "CC(Nc1ccc2nc[nH]c(=O)c2n1)c1c(Cl)ccc(F)c1Cl", "note": "(racemic) [Compound 259, 6-((1-(2,6-dichloro-3-fluorophenyl)ethyl)amino)pyrido[3,2-d]pyrimidin-4(3H)-one]", "values": [
      {"measurement": "IC50", "result": "< 100", "unit": "nM"}
    ]},
    {"smiles": "Cc1snc(C(C)Nc2ccc3nc[nH]c(=O)c3c2)c1Cl", "note": "(racemic) [Compound 260, 6-((1-(4-chloro-5-methylisothiazol-3-yl)ethyl)amino)quinazolin-4(3H)-one]", "values": [
      {"measurement": "IC50", "result": "100 to 500", "unit": "nM"}
    ]},
    {"smiles": "Cc1n[nH]c2cc(NC(C)c3nc(Cl)c(Cl)s3)ccc12", "note": "(racemic) [Compound 261, N-(1-(4,5-dichlorothiazol-2-yl)ethyl)-3-methyl-1H-indazol-6-amine]", "values": [
      {"measurement": "IC50", "result": "< 100", "unit": "nM"}
    ]},
    {"smiles": "COc1nccc2ccc(NC(C)c3nc4c(s3)CN(C(=O)OC(C)(C)C)CC4)cc12", "note": "(racemic) [Compound 262, tert-butyl 2-(1-((1-methoxyisoquinolin-7-yl)amino)ethyl)-6,7-dihydrothiazolo[5,4-c]pyridine-5(4H)-carboxylate]", "values": [
      {"measurement": "IC50", "result": "100 to 500", "unit": "nM"}
    ]},
    {"smiles": "CC(Nc1ccc2c(c1)nc(C(N)=O)n2C)c1c(Cl)ccc(F)c1Cl", "note": "(racemic) [Compound 263, 5-((1-(2,6-dichloro-3-fluorophenyl)ethyl)amino)-1-methyl-1H-benzo[d]imidazole-2-carboxamide]", "values": [
      {"measurement": "IC50", "result": "< 100", "unit": "nM"}
    ]},
    {"smiles": "Cc1n[nH]c(=O)c2cc(NC(C)c3nccc(Cl)c3Cl)ccc12", "note": "(racemic) [Compound 266, 7-((1-(3,4-dichloropyridin-2-yl)ethyl)amino)-4-methylphthalazin-1(2H)-one]", "values": [
      {"measurement": "IC50", "result": "< 100", "unit": "nM"}
    ]},
    {"smiles": "CC(Nc1ccc2c(c1)NC(=O)C2(C)C)c1cncc(Cl)c1Cl", "note": "(racemic) [Compound 267, 6-((1-(4,5-dichloropyridin-3-yl)ethyl)amino)-3,3-dimethylindolin-2-one]", "values": [
      {"measurement": "IC50", "result": "< 100", "unit": "nM"}
    ]},
    {"smiles": "CC1Cc2ccc(NS(=O)(=O)c3cccc(Cl)c3Cl)cc2NC1=O", "note": "(racemic) [Compound 269, 2,3-dichloro-N-(3-methyl-2-oxo-3,4-dihydro-1H-quinolin-7-yl)benzenesulfonamide]", "values": [
      {"measurement": "IC50", "result": "< 100", "unit": "nM"}
    ]},
    {"smiles": "CC(Nc1cc(F)c2nc[nH]c(=O)c2c1)c1nc(Cl)c(Cl)s1", "note": "(racemic) [Compound 271, 6-((1-(4,5-dichlorothiazol-2-yl)ethyl)amino)-8-fluoroquinazolin-4(3H)-one]", "values": [
      {"measurement": "IC50", "result": "< 100", "unit": "nM"}
    ]},
    {"smiles": "CCC(Nc1ccc2c(OC)n[nH]c(=O)c2c1)c1nc(Cl)c(Cl)s1", "note": "(racemic) [Compound 272, 7-((1-(4,5-dichlorothiazol-2-yl)propyl)amino)-4-methoxyphthalazin-1(2H)-one]", "values": [
      {"measurement": "IC50", "result": "< 100", "unit": "nM"}
    ]},
    {"smiles": "CC1(C)CC(O)c2cc(NS(=O)(=O)c3cccc(Cl)c3Cl)ccc21", "note": "(racemic) [Compound 274, 2,3-dichloro-N-(3-hydroxy-1,1-dimethyl-2,3-dihydro-1H-inden-5-yl)benzenesulfonamide]", "values": [
      {"measurement": "IC50", "result": "< 100", "unit": "nM"}
    ]},
    {"smiles": "Cc1n[nH]c(=O)c2cc(NC(C)c3cncc(Cl)c3Cl)ccc12", "note": "(racemic) [Compound 275, 7-((1-(4,5-dichloropyridin-3-yl)ethyl)amino)-4-methylphthalazin-1(2H)-one]", "values": [
      {"measurement": "IC50", "result": "< 100", "unit": "nM"}
    ]},
    {"smiles": "CC(Nc1ccc2c(c1)N(C(N)=O)CC2(C)C)c1nc(Cl)c(Cl)s1", "note": "(racemic) [Compound 276, 6-((1-(4,5-dichlorothiazol-2-yl)ethyl)amino)-3,3-dimethylindoline-1-carboxamide]", "values": [
      {"measurement": "IC50", "result": "< 100", "unit": "nM"}
    ]},
    {"smiles": "CC(Nc1ccc2c(c1)N(CCO)C(=O)C2(C)C)c1nc(Cl)c(Cl)s1", "note": "(racemic) [Compound 277, 6-((1-(4,5-dichlorothiazol-2-yl)ethyl)amino)-1-(2-hydroxyethyl)-3,3-dimethylindolin-2-one]", "values": [
      {"measurement": "IC50", "result": "< 100", "unit": "nM"}
    ]},
    {"smiles": "CC(Nc1ccc2c(c1)C(=O)NC2(C)C)c1nc(Cl)c(Cl)s1", "note": "(racemic) [Compound 278, 6-[1-(4,5-dichlorothiazol-2-yl)ethylamino]-3,3-dimethyl-isoindolin-1-one]", "values": [
      {"measurement": "IC50", "result": "< 100", "unit": "nM"}
    ]},
    {"smiles": "CC(Nc1ccc2c(c1)c(C(=O)NCCO)nn2C)c1c(Cl)ccc(F)c1Cl", "note": "(racemic) [Compound 282, 5-((1-(2,6-dichloro-3-fluorophenyl)ethyl)amino)-N-(2-hydroxyethyl)-1-methyl-1H-indazol-3-carboxamide]", "values": [
      {"measurement": "IC50", "result": "< 100", "unit": "nM"}
    ]},
    {"smiles": "CC(=O)NC1CCCc2ccc(NS(=O)(=O)c3cccc(Cl)c3Cl)cc21", "note": "(racemic) [Compound 283, N-(7-((2,3-dichlorophenyl)sulfonamido)-1,2,3,4-tetrahydronaphthalen-1-yl)acetamide]", "values": [
      {"measurement": "IC50", "result": "< 100", "unit": "nM"}
    ]},
    {"smiles": "CC(Nc1ccc2ccn(CC(N)=O)c(=O)c2c1)c1nc(Cl)c(Cl)s1", "note": "(racemic) [Compound 290, 2-(7-((1-(4,5-dichlorothiazol-2-yl)ethyl)amino)-1-oxoisoquinolin-2(1H)-yl)acetamide]", "values": [
      {"measurement": "IC50", "result": "< 100", "unit": "nM"}
    ]},
    {"smiles": "CC(Nc1cc(F)c2ncn(CCO)c(=O)c2c1)c1nc(Cl)c(Cl)s1", "note": "(racemic) [Compound 297, 6-((1-(4,5-dichlorothiazol-2-yl)ethyl)amino)-8-fluoro-3-(2-hydroxyethyl)quinazolin-4(3H)-one]", "values": [
      {"measurement": "IC50", "result": "< 100", "unit": "nM"}
    ]},
    {"smiles": "CC1(C)CC(C#N)c2cc(NS(=O)(=O)c3cccc(Cl)c3Cl)ccc21", "note": "(racemic) [Compound 298, 2,3-dichloro-N-(3-cyano-1,1-dimethyl-2,3-dihydro-1H-inden-5-yl)benzenesulfonamide]", "values": [
      {"measurement": "IC50", "result": "< 100", "unit": "nM"}
    ]},
    {"smiles": "Cc1nn(CC(N)=O)c(=O)c2cc(NC(C)c3c(Cl)ccc(F)c3Cl)ccc12", "note": "(racemic) [Compound 300, 2-(7-((1-(2,6-dichloro-3-fluorophenyl)ethyl)amino)-4-methyl-1-oxophthalazin-2(1H)-yl)acetamide]", "values": [
      {"measurement": "IC50", "result": "< 100", "unit": "nM"}
    ]},
    {"smiles": "Cc1nn(CCO)c2cc(NC(C)c3nc(Cl)c(Cl)s3)ccc12", "note": "(racemic) [Compound 301, 2-(6-((1-(4,5-dichlorothiazol-2-yl)ethyl)amino)-3-methyl-1H-indazol-1-yl)ethan-1-ol]", "values": [
      {"measurement": "IC50", "result": "< 100", "unit": "nM"}
    ]},
    {"smiles": "O=C1NC(CO)CCc2ccc(NS(=O)(=O)c3cccc(Cl)c3Cl)cc21", "note": "(racemic) [Compound 304A, 2,3-dichloro-N-(3-(hydroxymethyl)-1-oxo-2,3,4,5-tetrahydro-1H-benzo[c]azepin-8-yl)benzenesulfonamide]", "values": [
      {"measurement": "IC50", "result": "< 100", "unit": "nM"}
    ]},
    {"smiles": "CC(Nc1ccc2ccn(CCO)c(=O)c2c1)c1nc(Cl)c(Cl)s1", "note": "(racemic) [Compound 305, 7-((1-(4,5-dichlorothiazol-2-yl)ethyl)amino)-2-(2-hydroxyethyl)isoquinolin-1(2H)-one]", "values": [
      {"measurement": "IC50", "result": "< 100", "unit": "nM"}
    ]},
    {"smiles": "Cc1c2ccc(NC(C)c3nc(Cl)c(Cl)s3)cc2nn1CCO", "note": "(racemic) [Compound 307, 2-(6-((1-(4,5-dichlorothiazol-2-yl)ethyl)amino)-3-methyl-2H-indazol-2-yl)ethan-1-ol]", "values": [
      {"measurement": "IC50", "result": "< 100", "unit": "nM"}
    ]},
    {"smiles": "CC(Nc1ccc2cc[nH]c(=O)c2c1)c1nc(Cl)n(C)c1Cl", "note": "(racemic) [Compound 308, 7-((1-(2,5-dichloro-1-methyl-1H-imidazol-4-yl)ethyl)amino)isoquinolin-1(2H)-one]", "values": [
      {"measurement": "IC50", "result": "100 to 500", "unit": "nM"}
    ]},
    {"smiles": "CC(Nc1ccc2c(c1)c(C(N)=O)nn2C)c1nc(Cl)c(Cl)s1", "note": "(racemic) [Compound 310, 5-((1-(4,5-dichlorothiazol-2-yl)ethyl)amino)-1-methyl-1H-indazole-3-carboxamide]", "values": [
      {"measurement": "IC50", "result": "< 100", "unit": "nM"}
    ]},
    {"smiles": "Cc1n[nH]c(=O)c2nc(NC(C)c3nn(C)c(Cl)c3Cl)ccc12", "note": "(racemic) [Compound 311, 2-((1-(4,5-dichloro-1-methyl-1H-pyrazol-3-yl)ethyl)amino)-5-methylpyrido[2,3-d]pyridazin-8(7H)-one]", "values": [
      {"measurement": "IC50", "result": "< 100", "unit": "nM"}
    ]},
    {"smiles": "Cc1c2ccc(NC(C)c3nc(Cl)c(Cl)s3)cc2nn1CC(N)=O", "note": "(racemic) [Compound 312A, 2-(6-((1-(4,5-dichlorothiazol-2-yl)ethyl)amino)-3-methyl-2H-indazol-2-yl)acetamide]", "values": [
      {"measurement": "IC50", "result": "< 100", "unit": "nM"}
    ]}
  ]
}
